Target: T1, BenM (Acinetobacter baylyi, UniProt O68014)
T1 construct: expressed in transfected cells; host or cells: Saccharomyces cerevisiae CEN.PK113-5A, chromosomal integration; promoters TDH3p, TEF1p, RNR2p or REV1p
Assay: CCM-induced GFP expression in yeast strains combining BenM expression cassettes and CYC1p reporter promoter variants (flow cytometry)
Format: cell-based, Saccharomyces cerevisiae
Settings: for FC (+/−CCM): 1.4 mM CCM
Excerpt: Strains, chemicals and media. Saccharomyces cerevisiae CEN.PK102-5B (MATa ura3-52 his3Δ1 leu2-3/112 MAL2-8^c SUC2), CEN.PK113-5A (MATa, trp1 his3Δ1 leu2-3/112 MAL2-8^c SUC2) and CEN.PK113-7D (wild type, MATa MAL2-8^c SUC2) strains were obtained from Peter Kotter (Johann Wolfgang Goethe-University Frankfurt, Germany). In principal any other yeast strains may be used, such as one obtained from public repository EuroScarf. EasyClone plasmids used in this work are described in Jensen, N. B. et al. EasyClone: method for iterative chromosomal integration of multiple genes in Saccharomyces cerevisiae. FEMS Yeast Res. 14, 238-48 (2014). Escherichia coli strain DH5a was used as a host for cloning and plasmid propagation. The chemicals and Pfu TURBO DNA polymerase were commercially obtained (Sigma-Aldrich and Agilent Technologies Inc., respectively). All acids used were >97% in purity. S. cerevisiae cells were grown at 30° C. in synthetic complete medium as well as drop-out media and agar plates were prepared using pre-mixed drop-out powders (Sigma-Aldrich). Mineral medium was freshly prepared as described previously. For all media containing diacids, 1.4 mM of the individual diacids were dissolved in mineral medium and pH adjusted to 4.5 before sterile filtration. For CCM several dilutions were made to examine the performance of the CCM biosensor. For naringenin, mineral medium was supplemented with 0, 0.05, 0.10 or 0.20 mM naringenin, dissolved in ethanol, the final ethanol concentration for each medium was 2% (v/v), and the final pH of the medium was adjusted to 6.0. E. coli cells were grown at 37° C. in Luria-Bertani (LB) medium supplemented with 100 μg/mL ampicillin.
Events were analyzed using FlowJo software (TreeStar Inc.).

T1 sequence (O68014 whole entry): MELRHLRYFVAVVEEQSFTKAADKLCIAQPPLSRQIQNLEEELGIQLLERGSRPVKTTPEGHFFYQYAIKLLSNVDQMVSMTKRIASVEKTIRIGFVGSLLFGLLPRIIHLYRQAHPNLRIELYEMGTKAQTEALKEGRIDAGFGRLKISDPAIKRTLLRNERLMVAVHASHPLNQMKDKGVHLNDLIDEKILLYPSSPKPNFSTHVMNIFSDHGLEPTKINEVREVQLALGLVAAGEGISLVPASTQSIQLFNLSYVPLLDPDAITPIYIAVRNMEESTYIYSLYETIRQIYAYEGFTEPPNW

For `O=C(O)/C=C\C=C/C(=O)O` [CCM, cis, cis-muconic acid], the “maximum induction of GFP output” value (chromosomally integrated BenM, 1.4 mM (200 mg/L) CCM, 24 h) was 3.5 fold, the “increase in reporter output from all CYC1 promoters that harbored BenO” value (full-length CYC1p with BenO (T1, T2, T1/T2), BenM from TEF1p, 200 mg/L CCM, pH 4.5, 24 h) was 1.3-2.2 fold and the “highest dynamic range (CCM-inducibility)” value (minimal promoters 249 bp_CYC1p_BenO_T1 and 209 bp_CYC1p_BenO_T1) was 3.2-4.7 fold. For the same molecule, the “change in reporter output from native CYC1p” value (native CYC1p, 200 mg/L CCM, pH 4.5, 24 h) was “no change”, the “Mean fluorescense intensities of GFP (24 h), CCM (1.4 mM)” value (“Mean fluorescense intensities of GFP” for short) (strain MeLS0020, TEF1p-BenM + 491bp_CYC1p_BenO_T2:GFP) was 813 and the “FC (+/−CCM)” value (strain MeLS0020, TEF1p-BenM + 491bp_CYC1p_BenO_T2:GFP, 24 h) was 2.224. For the same molecule, the “Mean fluorescense intensities of GFP” value (strain MeLS0021, TEF1p-BenM + 491bp_CYC1p_BenO_T1/T2:GFP) was 2967, the “FC (+/−CCM)” value (strain MeLS0021, TEF1p-BenM + 491bp_CYC1p_BenO_T1/T2:GFP, 24 h) was 2.184 and the “Mean fluorescense intensities of GFP” value (strain MeLS0025, TEF1p-BenM + 209bp_CYC1p_BenO_T1:GFP) was 4139. The “FC (+/−CCM)” value (strain MeLS0025, TEF1p-BenM + 209bp_CYC1p_BenO_T1:GFP, 24 h) was 3.494, the “Mean fluorescense intensities of GFP” value (strain MeLS0026, TEF1p-BenM + 209bp_CYC1p_BenO_T2:GFP) was 406 and the “FC (+/−CCM)” value (strain MeLS0026, TEF1p-BenM + 209bp_CYC1p_BenO_T2:GFP, 24 h) was 1.068. The “Mean fluorescense intensities of GFP” value (strain MeLS0027, TEF1p-BenM + 209bp_CYC1p_BenO_T1/T2:GFP) was 1879, the “FC (+/−CCM)” value (strain MeLS0027, TEF1p-BenM + 209bp_CYC1p_BenO_T1/T2:GFP, 24 h) was 3.394 and the “Mean fluorescense intensities of GFP” value (strain MeLS0044, REV1p-BenM + 491bp_CYC1p_BenO_T2:GFP) was 667. The “FC (+/−CCM)” value (strain MeLS0044, REV1p-BenM + 491bp_CYC1p_BenO_T2:GFP, 24 h) was 1.524, the “Mean fluorescense intensities of GFP” value (strain MeLS0045, REV1p-BenM + 491bp_CYC1p_BenO_T1/T2:GFP) was 1698 and the “FC (+/−CCM)” value (strain MeLS0045, REV1p-BenM + 491bp_CYC1p_BenO_T1/T2:GFP, 24 h) was 1.418. For the same molecule, the CCM-inducibility (strain MeLS0049, 209 bp_CYC1p_BenO_T1, BenM from REV1p) was 3.8 fold, the “Mean fluorescense intensities of GFP” value (strain MeLS0049, REV1p-BenM + 209bp_CYC1p_BenO_T1:GFP) was 880 and the “FC (+/−CCM)” value (strain MeLS0049, REV1p-BenM + 209bp_CYC1p_BenO_T1:GFP, 24 h) was 3.81. The “Mean fluorescense intensities of GFP” value (strain MeLS0050, REV1p-BenM + 209bp_CYC1p_BenO_T2:GFP) was 182, the “FC (+/−CCM)” value (strain MeLS0050, REV1p-BenM + 209bp_CYC1p_BenO_T2:GFP, 24 h) was 1.166 and the “Mean fluorescense intensities of GFP” value (strain MeLS0051, REV1p-BenM + 209bp_CYC1p_BenO_T1/T2:GFP) was 307. The “FC (+/−CCM)” value (strain MeLS0051, REV1p-BenM + 209bp_CYC1p_BenO_T1/T2:GFP, 24 h) was 1.569, the “Mean fluorescense intensities of GFP” value (strain MeLS0070, RNR2p-BenM + 209bp_CYC1p_BenO_T1/T2:GFP) was 356 and the “FC (+/−CCM)” value (strain MeLS0070, RNR2p-BenM + 209bp_CYC1p_BenO_T1/T2:GFP, 24 h) was 1.775. The “Mean fluorescense intensities of GFP” value (strain MeLS0079, TEF1p-BenM) was 185, the “FC (+/−CCM)” value (strain MeLS0079, TEF1p-BenM, 24 h) was 1.071 and the “Mean fluorescense intensities of GFP” value (strain MeLS0081, REV1p-BenM) was 175. For the same molecule, the “FC (+/−CCM)” value (strain MeLS0081, REV1p-BenM, 24 h) was 1.105, the “Mean fluorescense intensities of GFP” value (strain MeLS0139, REV1p-BenM + 491bp_CYC1p:GFP) was 2231 and the “FC (+/−CCM)” value (strain MeLS0139, REV1p-BenM + 491bp_CYC1p:GFP, 24 h) was 0.9828. The “Mean fluorescense intensities of GFP” value (strain MeLS0140, REV1p-BenM + 272bp_CYC1p:GFP) was 183, the “FC (+/−CCM)” value (strain MeLS0140, REV1p-BenM + 272bp_CYC1p:GFP, 24 h) was 1.105 and the “Mean fluorescense intensities of GFP” value (strain MeLS0141, REV1p-BenM + 249bp_CYC1p:GFP) was 176. The “FC (+/−CCM)” value (strain MeLS0141, REV1p-BenM + 249bp_CYC1p:GFP, 24 h) was 1.056, the “Mean fluorescense intensities of GFP” value (strain MeLS0142, REV1p-BenM + 209bp_CYC1p:GFP) was 174 and the “FC (+/−CCM)” value (strain MeLS0142, REV1p-BenM + 209bp_CYC1p:GFP, 24 h) was 1.09. For the same molecule, the “Mean fluorescense intensities of GFP” value (strain MeLS0143, REV1p-BenM + 491bp_CYC1p_BenO_T1:GFP) was 5789, the “FC (+/−CCM)” value (strain MeLS0143, REV1p-BenM + 491bp_CYC1p_BenO_T1:GFP, 24 h) was 1.088 and the “Mean fluorescense intensities of GFP” value (strain MeLS0144, REV1p-BenM + 272bp_CYC1p_BenO_T1:GFP) was 804. The “FC (+/−CCM)” value (strain MeLS0144, REV1p-BenM + 272bp_CYC1p_BenO_T1:GFP, 24 h) was 2.381, the “Mean fluorescense intensities of GFP” value (strain MeLS0145, REV1p-BenM + 249bp_CYC1p_BenO_T1:GFP) was 405 and the “FC (+/−CCM)” value (strain MeLS0145, REV1p-BenM + 249bp_CYC1p_BenO_T1:GFP, 24 h) was 1.953. For the same molecule, the “Mean fluorescense intensities of GFP” value (strain MeLS0147, TDH3p-BenM + 272bp_CYC1p_BenO_T1:GFP) was 4984, the “FC (+/−CCM)” value (strain MeLS0147, TDH3p-BenM + 272bp_CYC1p_BenO_T1:GFP, 24 h) was 3.738 and the “Mean fluorescense intensities of GFP” value (strain MeLS0148, TEF1p-BenM + 272bp_CYC1p_BenO_T1:GFP) was 4032. The “FC (+/−CCM)” value (strain MeLS0148, TEF1p-BenM + 272bp_CYC1p_BenO_T1:GFP, 24 h) was 3.463, the “Mean fluorescense intensities of GFP” value (strain MeLS0149, RNR2p-BenM + 272bp_CYC1p_BenO_T1:GFP) was 854 and the “FC (+/−CCM)” value (strain MeLS0149, RNR2p-BenM + 272bp_CYC1p_BenO_T1:GFP, 24 h) was 2.313. The “Mean fluorescense intensities of GFP” value (strain MeLS0150, TDH3p-BenM + 209bp_CYC1p_BenO_T1:GFP) was 4868, the “FC (+/−CCM)” value (strain MeLS0150, TDH3p-BenM + 209bp_CYC1p_BenO_T1:GFP, 24 h) was 4.082 and the “Mean fluorescense intensities of GFP” value (strain MeLS0151, RNR2p-BenM + 209bp_CYC1p_BenO_T1:GFP) was 859. The “FC (+/−CCM)” value (strain MeLS0151, RNR2p-BenM + 209bp_CYC1p_BenO_T1:GFP, 24 h) was 3.735, the “Mean fluorescense intensities of GFP” value (strain MeLS0152, TDH3p-BenM) was 184 and the “FC (+/−CCM)” value (strain MeLS0152, TDH3p-BenM, 24 h) was 1.08. For the same molecule, the “Mean fluorescense intensities of GFP” value (strain MeLS0153, RNR2p-BenM) was 174, the “FC (+/−CCM)” value (strain MeLS0153, RNR2p-BenM, 24 h) was 1.13 and the “Mean fluorescense intensities of GFP” value (strain MeLS0156, TEF1p-BenM + 491bp_CYC1p:GFP) was 3016. For the same molecule, the “FC (+/−CCM)” value (strain MeLS0156, TEF1p-BenM + 491bp_CYC1p:GFP, 24 h) was 0.9902, the “Mean fluorescense intensities of GFP” value (strain MeLS0157, TEF1p-BenM + 272bp_CYC1p:GFP) was 198 and the “FC (+/−CCM)” value (strain MeLS0157, TEF1p-BenM + 272bp_CYC1p:GFP, 24 h) was 1.13. For the same molecule, the “Mean fluorescense intensities of GFP” value (strain MeLS0158, TEF1p-BenM + 249bp_CYC1p:GFP) was 175, the “FC (+/−CCM)” value (strain MeLS0158, TEF1p-BenM + 249bp_CYC1p:GFP, 24 h) was 1.117 and the “Mean fluorescense intensities of GFP” value (strain MeLS0159, TEF1p-BenM + 209bp_CYC1p:GFP) was 177. The “FC (+/−CCM)” value (strain MeLS0159, TEF1p-BenM + 209bp_CYC1p:GFP, 24 h) was 1.132, the “Mean fluorescense intensities of GFP” value (strain MeLS0160, RNR2p-BenM + 491bp_2YC1p:GFP) was 2811 and the “FC (+/−CCM)” value (strain MeLS0160, RNR2p-BenM + 491bp_2YC1p:GFP, 24 h) was 1.071. For the same molecule, the “Mean fluorescense intensities of GFP” value (strain MeLS0161, RNR2p-BenM + 272bp_CYC1p:GFP) was 180 and the “FC (+/−CCM)” value (strain MeLS0161, RNR2p-BenM + 272bp_CYC1p:GFP, 24 h) was 1.049.

From US20190185865A1, “USE OF PROKARYOTIC TRANSCRIPTIONAL ACTIVATORS AS METABOLITE BIOSENSORS IN EUKARYOTIC CELLS” (Danmarks Tekniske Universitet, priority 2016, published 2019)
